# Reference: patent US20060069132A1, “Azolecarboxamide herbicides” (priority 2004, published 2006)
# Assays:
# morningglory = experiment: Test B pre-/postemergence herbicide test; assay type: in vivo, Ipomoea coccinea; conditions: for Morningglory plant response rating: scale 0 (no effect) to 100 (complete control)
# Procedure, shortened: (§1)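 Plants compared with untreated controls 13–15 days post-treatment and given a visual 0–100 injury score. Applications: preemergence to seeds; postemergence at 1- to 4-leaf (2–18 cm); paddy species flooded, 2-leaf stage. Vehicle non-phytotoxic, surfactant included.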
# rice = experiment: Test B flooded paddy test; assay type: in vivo, Oryza sativa; conditions: 1000 g ai/ha, scale 0 to 100 (0 no effect, 100 complete control)
# Procedure, shortened: (§2)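 Plants grow to 1- to 4-leaf stage (2–18 cm) for postemergence spraying, or to 2-leaf stage for the paddy test. Formulated compound is applied. Greenhouse holding lasts 13–15 days. Response is scored visually relative to controls, 0 no effect to 100 complete control; a dash means no result.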
# wild oat = experiment: Test B postemergence herbicide test; assay type: in vivo, Avena fatua
# Procedure, shortened: as §2
# ducksalad = experiment: Test B flooded paddy test; assay type: in vivo, Heteranthera limosa; conditions: 1000 g ai/ha, scale 0 to 100 (0 no effect, 100 complete control)
# Procedure, shortened: (§3)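 Formulated test chemicals went onto postemergence plants measuring 2 to 18 cm, at one to four leaves. For the paddy assay, species had reached two leaves. Scoring took place 13–15 days later by eye, relative to untreated plants, using 0 for no effect up to 100 for full control.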
# barnyardgrass [1] = experiment: Test B pre-/postemergence herbicide test; assay type: in vivo, Echinochloa crus-galli; conditions: for Plant response rating (0 to 100 scale), Barnyardgrass: 0 is no effect
# Procedure, shortened: as §1
# barnyardgrass [2] = experiment: Test B flooded paddy test; assay type: in vivo, Echinochloa crus-galli; conditions: 1000 g ai/ha, scale 0 to 100 (0 no effect, 100 complete control)
# Procedure, shortened: as §3
# corn = experiment: Test B pre-/postemergence herbicide test; assay type: in vivo, Zea mays
# Procedure, shortened: (§4)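 Pre: seeds sown, then sprayed. Post: 1–4-leaf plants (2–18 cm) sprayed at the same time. Paddy: flooded, treated at 2-leaf stage. Formulation: non-phytotoxic solvent with surfactant. Greenhouse 13–15 days; visual 0–100 score relative to controls.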
# Surinam grass = experiment: Test B pre-/postemergence herbicide test; assay type: in vivo, Urochloa decumbens; conditions: for Plant response rating (0 to 100 scale), Surinam Grass: 0 is no effect
# Procedure, shortened: as §4
# large crabgrass = experiment: Test B pre-/postemergence herbicide test; assay type: in vivo, Digitaria sanguinalis; conditions: for Plant response rating (0 to 100 scale), Crabgrass, Large: 0 is no effect
# Procedure, shortened: as §4
# cocklebur = experiment: Test B pre-/postemergence herbicide test; assay type: in vivo, Xanthium strumarium; conditions: for Plant response rating (0 to 100 scale), Cocklebur: 0 is no effect
# Procedure, shortened: as §1
# blackgrass = experiment: Test B postemergence herbicide test; assay type: in vivo, Alopecurus myosuroides
# Procedure, shortened: as §3
# velvetleaf = experiment: Test B pre-/postemergence herbicide test; assay type: in vivo, Abutilon theophrasti; conditions: for Plant response rating (0 to 100 scale), Velvetleaf: 0 is no effect
# Procedure, shortened: as §4
# lambsquarters = experiment: Test B pre-/postemergence herbicide test; assay type: in vivo, Chenopodium album
# Procedure, shortened: as §4
# wheat = experiment: Test B postemergence herbicide test; assay type: in vivo, Triticum aestivum; parameters: key to Wheat plant response rating: 0 = no effect, 100 = complete control
# Procedure, shortened: as §2
# [3] = system: small flower umbrella sedge; experiment: Test B flooded paddy test; assay type: in vivo, Cyperus difformis; conditions: 1000 g ai/ha, scale 0 to 100 (0 no effect, 100 complete control)
# Procedure, shortened: as §3
# pigweed = experiment: Test B pre-/postemergence herbicide test; assay type: in vivo, Amaranthus retroflexus; conditions: for Plant response rating (0 to 100 scale), Pigweed: 0 is no effect
# Procedure, shortened: as §4
# [4] = 125 g ai/ha, 0 is no effect, 100 is complete control, preemergence
# [5] = 125 g ai/ha, visual rating, postemergence
# [6] = 125 g ai/ha, visual rating, scale 0 (no effect) to 100 (complete control), postemergence
# [7] = Postemergence, 500 g ai/ha, scale 0 (no effect) to 100 (complete control)
# [8] = 125 g ai/ha, 100 is complete control, preemergence
# [9] = 125 g ai/ha, 0 = no effect, 100 = complete control, preemergence
# [10] = 500 g ai/ha, visual rating 0-100, 0 no effect, 100 complete control, preemergence
# [11] = postemergence, 125 g ai/ha, visual rating, scale 0 (no effect) to 100 (complete control)
# [12] = postemergence, 500 g ai/ha, visual rating, scale 0 (no effect) to 100 (complete control)
# [13] = 500 g ai/ha, visual rating, 0 = no effect, 100 = complete control, preemergence
# [14] = postemergence, 500 g ai/ha, scale 0 to 100, 0 is no effect, 100 is complete control
structure (smiles),measurement,setting,value
CCc1nn(C(C)(C)C)nc1C(=S)Nc1cccc(C(=S)N(C)C)c1 [Compound 396],"Plant response rating (0 to 100 scale), Morningglory",morningglory; [4],60
same,Morningglory plant response rating,morningglory; [5],20
same,Morningglory plant response rating,"morningglory; Postemergence, 500 g ai/ha",60
same,Rice plant response rating,rice,70
same,"Oat, Wild plant response rating",wild oat; [6],0
same,"Oat, Wild plant response rating",wild oat; [7],30
same,Ducksalad plant response rating,ducksalad,70
same,"Plant response rating (0 to 100 scale), Barnyardgrass",barnyardgrass [1]; [8],90
same,Barnyardgrass plant response rating,barnyardgrass [1]; [6],10
same,Barnyardgrass plant response rating,barnyardgrass [1]; [7],20
same,Barnyardgrass plant response rating,barnyardgrass [2],90
same,"Plant response rating (0 to 100 scale), Corn",corn; [4],80
same,Corn plant response rating,corn; [6],10
same,Corn plant response rating,corn; [7],10
same,"Plant response rating (0 to 100 scale), Surinam Grass",Surinam grass; [8],90
same,Surinam Grass plant response rating,Surinam grass; [6],20
same,Surinam Grass plant response rating,Surinam grass; [7],30
same,"Plant response rating (0 to 100 scale), Crabgrass, Large",large crabgrass; [8],100
same,"Crabgrass, Large plant response rating",large crabgrass; [6],20
same,"Crabgrass, Large plant response rating",large crabgrass; [7],20
same,"Plant response rating (0 to 100 scale), Cocklebur",cocklebur; [8],40
same,Cocklebur plant response rating,cocklebur; [6],20
same,Cocklebur plant response rating,cocklebur; [7],60
same,Blackgrass plant response rating,blackgrass; [6],10
same,Blackgrass plant response rating,blackgrass; [7],30
same,"Plant response rating (0 to 100 scale), Velvetleaf",velvetleaf; [8],80
same,Velvetleaf plant response rating,velvetleaf; [6],20
same,Velvetleaf plant response rating,velvetleaf; [7],50
same,"Plant response rating (0 to 100 scale), Lambsquarters",lambsquarters; [4],100
same,Lambsquarters plant response rating,lambsquarters; [6],80
same,Lambsquarters plant response rating,lambsquarters; [7],100
same,Wheat plant response rating,wheat; [6],10
same,Wheat plant response rating,"wheat; 500 g ai/ha, scale 0 to 100, 0 no effect, 100 complete control, preemergence",100
same,Wheat plant response rating,wheat; [7],20
same,"Sedge, Umbrella plant response rating",[3],80
same,"Plant response rating (0 to 100 scale), Pigweed",pigweed; [8],90
same,Pigweed plant response rating,pigweed; [6],40
same,Pigweed plant response rating,pigweed; [7],70
C=CCNC(=O)c1cccc(NC(=O)c2sc(C(C)(C)C)nc2CC)c1 [Compound 207],Morningglory plant response rating (0 to 100 scale),morningglory; [9],20
same,"Plant response rating, Morningglory",morningglory; [10],40
same,Morningglory plant response rating,"morningglory; postemergence, 125 g ai/ha, visual rating",10
same,Morningglory plant response rating,"morningglory; postemergence, 500 g ai/ha, visual rating",20
same,Rice plant response rating,"rice; visual rating, 13 to 15 days",60
same,"Oat, Wild plant response rating",wild oat; [11],20
same,"Oat, Wild plant response rating",wild oat; [12],20
same,Ducksalad plant response rating,"ducksalad; visual rating, 13 to 15 days",90
same,Barnyardgrass plant response rating (0 to 100 scale),barnyardgrass [1]; [9],80
same,"Plant response rating, Barnyardgrass",barnyardgrass [1]; [10],90
same,Barnyardgrass plant response rating,barnyardgrass [1]; [11],20
same,Barnyardgrass plant response rating,barnyardgrass [1]; [12],20
same,Barnyardgrass plant response rating,"barnyardgrass [2]; visual rating, 13 to 15 days",80
same,Corn plant response rating (0 to 100 scale),corn; [9],10
same,"Plant response rating, Corn",corn; [10],50
same,Corn plant response rating,corn; [11],20
same,Corn plant response rating,corn; [12],20
same,Surinam Grass plant response rating (0 to 100 scale),Surinam grass; [9],40
same,"Plant response rating, Surinam Grass",Surinam grass; [10],60
same,Surinam Grass plant response rating,Surinam grass; [11],20
same,Surinam Grass plant response rating,Surinam grass; [12],20
same,"Crabgrass, Large plant response rating (0 to 100 scale)",large crabgrass; [9],70
same,"Plant response rating, Crabgrass, Large",large crabgrass; [10],100
same,"Crabgrass, Large plant response rating",large crabgrass; [11],20
same,"Crabgrass, Large plant response rating",large crabgrass; [12],20
same,Cocklebur plant response rating (0 to 100 scale),cocklebur; [9],10
same,"Plant response rating, Cocklebur",cocklebur; [10],20
same,Cocklebur plant response rating,cocklebur; [11],40
same,Cocklebur plant response rating,cocklebur; [12],80
same,Blackgrass plant response rating,blackgrass; [11],0
same,Blackgrass plant response rating,blackgrass; [12],10
same,Velvetleaf plant response rating (0 to 100 scale),velvetleaf; [9],20
same,"Plant response rating, Velvetleaf",velvetleaf; [10],60
same,Velvetleaf plant response rating,velvetleaf; [11],20
same,Velvetleaf plant response rating,velvetleaf; [12],30
same,Lambsquarters plant response rating (0 to 100 scale),lambsquarters; [9],80
same,"Plant response rating, Lambsquarters",lambsquarters; [10],100
same,Lambsquarters plant response rating,lambsquarters; [11],50
same,Lambsquarters plant response rating,lambsquarters; [12],80
same,Wheat plant response rating,wheat; [11],20
same,Wheat plant response rating,wheat; [12],20
same,"Sedge, Umbrella plant response rating","[3]; visual rating, 13 to 15 days",80
same,Pigweed plant response rating (0 to 100 scale),pigweed; [9],90
same,"Plant response rating, Pigweed",pigweed; [10],100
same,Pigweed plant response rating,pigweed; [11],30
same,Pigweed plant response rating,pigweed; [12],60
CCNC(=O)c1ccc(F)c(NC(=O)c2c3c(nn2CC)C(C)(C)CC3)c1 [Compound 353],Morningglory plant response rating,morningglory; [5],10
same,"Plant response rating, Morningglory",morningglory; [13],20
same,Rice plant response rating,rice,40
same,"Oat, Wild plant response rating",wild oat; [6],10
same,"Oat, Wild plant response rating",wild oat; [14],40
same,Ducksalad plant response rating,ducksalad,80
same,"Plant response rating (0 to 100 scale), Barnyardgrass",barnyardgrass [1]; [8],40
same,Barnyardgrass plant response rating,barnyardgrass [1]; [6],10
same,"Plant response rating, Barnyardgrass",barnyardgrass [1]; [13],90
same,Barnyardgrass plant response rating,barnyardgrass [1]; [14],10
same,Barnyardgrass plant response rating,barnyardgrass [2],70
same,Corn plant response rating,corn; [6],10
same,Corn plant response rating,corn; [14],20
same,"Plant response rating (0 to 100 scale), Surinam Grass",Surinam grass; [8],0
same,Surinam Grass plant response rating,Surinam grass; [6],0
same,"Plant response rating, Surinam Grass",Surinam grass; [13],30
same,Surinam Grass plant response rating,Surinam grass; [14],10
same,"Plant response rating (0 to 100 scale), Crabgrass, Large",large crabgrass; [8],20
same,"Crabgrass, Large plant response rating",large crabgrass; [6],10
same,"Plant response rating, Crabgrass, Large",large crabgrass; [13],80
same,"Crabgrass, Large plant response rating",large crabgrass; [14],10
same,"Plant response rating (0 to 100 scale), Cocklebur",cocklebur; [8],0
same,Cocklebur plant response rating,cocklebur; [6],10
same,"Plant response rating, Cocklebur",cocklebur; [13],20
same,Cocklebur plant response rating,cocklebur; [14],20
same,Blackgrass plant response rating,blackgrass; [6],10
same,Blackgrass plant response rating,blackgrass; [14],40
same,"Plant response rating (0 to 100 scale), Velvetleaf",velvetleaf; [8],10
same,Velvetleaf plant response rating,velvetleaf; [6],20
same,Velvetleaf plant response rating,velvetleaf; [14],20
same,Lambsquarters plant response rating,lambsquarters; [6],20
same,Lambsquarters plant response rating,lambsquarters; [14],40
same,Wheat plant response rating,wheat; [6],0
same,Wheat plant response rating,wheat; [14],10
same,"Sedge, Umbrella plant response rating",[3],90
same,"Plant response rating (0 to 100 scale), Pigweed",pigweed; [8],0
same,Pigweed plant response rating,pigweed; [6],30
same,Pigweed plant response rating,pigweed; [14],70
